Test results reported in patent publication EP0743064A1, “Leukotriene antagonists for use in the treatment or prevention of alzheimer's disease” (ELI LILLY AND COMPANY, priority 1995, dated 1996).
Where a name gives a salt, the structure may show the parent alone.

Biological target: T1, binding of tritiated LTB4 to guinea pig lung membranes (Cavia porcellus, UniProt H0VYV8)
T1 construct: contained 25 mg of guinea pig lung membrane protein; from tissue; host or cells: guinea pig lung membranes
Experiment: biochemical
Experimental: The effectiveness of compounds of Formula I to inhibit the binding of tritiated LTB4 to guinea pig lung membranes was determined as follows.
[^3H]-LTB4 Radioligand Binding Assay in Guinea Pig Lung Membranes
The binding reaction was terminated by the addition of 1 mL ice cold wash buffer (25 mM Tris-HCl, pH 7.5) followed immediately by vacuum filtration over Whatman GF/C glass fiber filters using a Brandel (Gaithersburg, MD) 48 place harvester. The filters were washed three times with 1 mL of wash buffer. Retained radioactivity was determined by liquid scintillation counting at 50% counting efficiency using Ready Protein Plus cocktail (Beckman, Fullerton, CA). Nondisplaceable binding was determined in the presence of 1 mM LTB4 and was usually less than 10% of total binding. […] The data reported below is the mean -log Ki, otherwise known as the pKi, for n experiments.

T1 sequence (H0VYV8 1-348): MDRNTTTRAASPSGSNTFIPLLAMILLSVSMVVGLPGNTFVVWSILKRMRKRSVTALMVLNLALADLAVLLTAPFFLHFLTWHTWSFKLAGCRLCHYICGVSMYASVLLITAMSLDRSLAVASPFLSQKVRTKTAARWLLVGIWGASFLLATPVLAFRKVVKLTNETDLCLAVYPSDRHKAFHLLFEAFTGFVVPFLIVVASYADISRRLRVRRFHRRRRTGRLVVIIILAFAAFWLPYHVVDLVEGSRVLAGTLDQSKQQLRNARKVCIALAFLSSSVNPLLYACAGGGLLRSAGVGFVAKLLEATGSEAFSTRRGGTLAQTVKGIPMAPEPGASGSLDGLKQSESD

Row | Ki [nM] | Structure (SMILES)
1 | 3.8 | CCc1cc(-c2ccc(F)cc2)c(O)cc1OCCCCCC(c1ccc(OCC(=O)N(C)C)cc1)c1nn[nH]n1 (centres unmarked) [Example 86, 1-(4-(Dimethylaminocarbonylmethoxy)phenyl)-1-(1H-tetrazol-5-yl)-6-(2-ethyl-4-(4-fluorophenyl)-5-hydroxyphenoxy)hexane]
2 | 6.31 | CCc1cc(-c2ccc(F)cc2)c(O)cc1OCCCCCC(c1ccccc1)c1nn[nH]n1 (centres unmarked) [Example 84, 1-Phenyl-1-(1H-tetrazol-5-yl)-6-(2-ethyl-4-(4-fluorophenyl)-5-hydroxyphenoxy)hexane]

Continued, compound first:

Row | Structure (SMILES) | Ki [nM]
3 | CCCc1c(OCCCOc2cc(O)c(-c3ccccc3)cc2CC)cccc1Oc1ccccc1C(=O)O [Example 61, 2-[2-Propyl-3-[3-(2-ethyl-5-hydroxy-4-phenylphenoxy)-propoxy]phenoxy]benzoic acid sodium salt hemihydrate] | 14.1
4 | CCc1cc(-c2ccc(C(F)(F)F)cc2)c(O)cc1OCCCCCC(C)(C)c1nn[nH]n1 [disodium salt] | 66.1
5 | CCc1cc(-c2cccc(N(C)C)c2)c(O)cc1OCCCCCC(C)(C)c1nn[nH]n1 [disodium salt] | 63.1
